The first test has as its system N-STZ-1.5 rats. The test is described as follows: Oral glucose tolerance test using N-STZ-1.5 rats (glucose-lowering effects and insulinotropic action). Format: in vivo, rat. Conditions: 3 mg/kg body weight oral, 1 hr before glucose loading 1.5 g/kg; glucose AUC (0-60 min) vs control group; male N-STZ-1.5 rats, n=6. The protocol:
The glucose-lowering effects and insulinotropic action of the compound of the present invention were evaluated by an oral glucose tolerance test using N-STZ-1.5 rats.
Streptozotocin (120 mg/kg) was subcutaneously administered to 1 or 2 days-old male Wistar Kyoto rats to prepare type 2 diabetic model N-STZ-1.5 rats. The rats were allowed free access to standard laboratory chow diet (CE-2, CLEA Japan, Inc.).
Male N-STZ-1.5 rats (25-week-old) were fasted for 15-17 hr, and the body weight was measured. Heparin (Ajinomoto Co., Inc.) as an anticoagulant and aprotinin (SIGMA) as a protease inhibitor were added, blood samples were collected from tail vein. The blood was centrifuged, the concentrations of glucose and triglyceride in plasma were measured, and the rats were divided into each group (n=6) based on these parameters. A 0.5% methylcellulose (control group) or a 0.5% methylcellulose suspension containing a test compound (3 mg/kg body weight) was orally administered to the rats at 5 ml/kg and, 1 hr after the administration, glucose solution (Otsuka Pharmaceutical Co., Ltd.) was orally administered at 1.5 g/7.5 ml/kg. Immediately before (0 min value) and 10, 30 and 60 min after the glucose loading, blood was drawn from the tail vein, centrifuged, and the concentrations of glucose and insulin in plasma were measured. The glucose and triglyceride concentrations were measured by automatic analysis apparatus 7180 (Hitachi, Ltd.), and the insulin concentration was measured by rat insulin radioimmunoassay kit (MIllipore). The area under glucose curve (AUC) and insulin AUC were calculated using the following formulas, and the blood glucose decrease rate (%) and insulin increase rate (fold) were calculated by the following formulas from the obtained AUCs. A statistical significant difference from the control group was analyzed by the Dunnett's test or Steel's test.
Glucose AUC (0-60 Min): {(0 min glucose in plasma)+(10 min glucose in plasma)}×10/2+{(10 min glucose in plasma)+(30 min glucose in plasma)}×20/2+{(30 min glucose in plasma)+(60 min glucose in plasma)}×30/2 insulin AUC (0-60 Min): {(0 min insulin in plasma)+(10 min insulin in plasma)}×10/2+{(10 min insulin in plasma)+(30 min insulin in plasma)}×20/2+{(30 min insulin in plasma)+(60 min insulin in plasma)}×30/2 Blood Glucose Decrease Rate (%): [(test compound administration group glucose AUC/control group glucose AUC)−1]×100 insulin Increase Rate (Fold):
test compound administration group insulin AUC/control group insulin AUC
Take `COc1ccc(C(=O)N(CC(C)(C)C)c2ncccn2)c(N2CCC(COc3cc(C(CC(=O)O)C4CC4)ccn3)CC2)c1` (centres unmarked) [Example 184, 3-cyclopropyl-3-(2-((1-(2-((2,2-dimethylpropyl)(pyrimidin-2-yl)carbamoyl)-5-methoxyphenyl)piperidin-4-yl)methoxy)pyridin-4-yl)propanoic acid]: the “blood glucose decrease rate (%)” value is recorded as 27.9^$ %.

Staying with this test, now noted: 3 mg/kg body weight oral, 1 hr before glucose loading 1.5 g/kg; insulin AUC (0-60 min) test group/control group; male N-STZ-1.5 rats, n=6.
For `COc1ccc(C(=O)N(CC(C)(C)C)c2ncccn2)c(N2CCC(COc3cc(C(CC(=O)O)C4CC4)ccn3)CC2)c1` (centres unmarked) [Example 184, 3-cyclopropyl-3-(2-((1-(2-((2,2-dimethylpropyl)(pyrimidin-2-yl)carbamoyl)-5-methoxyphenyl)piperidin-4-yl)methoxy)pyridin-4-yl)propanoic acid], the “insulin increase rate (fold)” value turned out to be 1.4 fold.

The target in another test is T1, human GPR40 (Homo sapiens, UniProt O14842).
T1 construct: expressed in transfected cells
T1 sequence (O14842 whole entry): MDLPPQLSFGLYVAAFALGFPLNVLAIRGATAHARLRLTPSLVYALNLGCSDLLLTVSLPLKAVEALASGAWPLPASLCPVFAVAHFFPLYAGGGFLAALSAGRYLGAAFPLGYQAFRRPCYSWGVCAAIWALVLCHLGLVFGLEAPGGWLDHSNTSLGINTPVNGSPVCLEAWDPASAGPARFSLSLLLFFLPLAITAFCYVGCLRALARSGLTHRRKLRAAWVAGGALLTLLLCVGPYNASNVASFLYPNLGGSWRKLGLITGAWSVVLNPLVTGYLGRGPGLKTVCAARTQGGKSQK
The test is described as follows: Evaluation of human GPR40 agonist activity with increase in intracellular Ca2+ concentration as an index (FLIPR). It counts as cell-based. Conditions: test compound 1 μM; CHO(dhfr−) cells stably expressing human GPR40; 100% = 10 μM compound of Example 153, 0% = DMSO. In a few lines: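 CHO(dhfr−) cells stably expressing full-length human GPR40 were loaded with Ca2+ probe for 1 h at room temperature, then given test compound at 1 μM final. Fluorescence was followed on FLIPR, with activity scaled to a reference agonist at 10 μM (100%) and DMSO (0%).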
In turn, `COc1ccc(C(=O)N(CC(C)(C)C)c2cccc(C)n2)c(N2CCC(C(C)Oc3cc(C(CC(=O)O)C4CC4)ccn3)CC2)c1` (centres unmarked) [Example 268, 3-cyclopropyl-3-(2-(1-(1-(2-((2,2-dimethylpropyl)(6-methylpyridin-2-yl)carbamoyl)-5-methoxyphenyl)piperidin-4-yl)ethoxy)pyridin-4-yl)propanoic acid] returned an activation at 1 µM of 92%.

As for `COc1ccc(C(=O)N(CC(C)(C)C)c2cccc(C)n2)c(N2CCC(COc3cccc(C(CC(=O)O)OC)c3)CC2)c1` (centres unmarked) [Example 269, 3-(3-((1-(2-((2,2-dimethylpropyl)(6-methylpyridin-2-yl)carbamoyl)-5-methoxyphenyl)piperidin-4-yl)methoxy)phenyl)-3-methoxypropanoic acid], the activation at 1 µM was determined as 103%.

In turn, `CCOC(CC(=O)O)c1cccc(OCC2CCN(c3cc(OC)ccc3C(=O)N(CC(C)(C)C)c3cccc(C)n3)CC2)c1` (centres unmarked) [Example 270, 3-(3-((1-(2-((2,2-dimethylpropyl)(6-methylpyridin-2-yl)carbamoyl)-5-methoxyphenyl)piperidin-4-yl)methoxy)phenyl)-3-ethoxypropanoic acid] gave an activation at 1 µM of 95%.

For the compound `COc1ccc(C(=O)N(CC(F)(F)F)c2cc(C)ccn2)c(N2CCC(COc3cc(C(CC(=O)O)OC)ccn3)CC2)c1` (centres unmarked) [Example 271, 3-methoxy-3-(2-((1-(5-methoxy-2-((4-methylpyridin-2-yl)(2,2,2-trifluoroethyl)carbamoyl)phenyl)piperidin-4-yl)methoxy)pyridin-4-yl)propanoic acid], the activation at 1 µM is 98%.

Compound `CCOC(CC(=O)O)c1ccnc(OCC2CCN(c3cc(OC)ccc3C(=O)N(CC(C)(C)C)c3cccc(C)n3)CC2)c1` (centres unmarked) [Example 272, 3-(2-((1-(2-((2,2-dimethylpropyl)(6-methylpyridin-2-yl)carbamoyl)-5-methoxyphenyl)piperidin-4-yl)methoxy)pyridin-4-yl)-3-ethoxypropanoic acid] showed an activation at 1 µM of 95%.

The compound `COc1ccc(C(=O)N(CC(C)(C)C)c2ncccn2)c(N2CCC(COc3cc(C(CC(=O)O)C4CC4)c(F)cn3)CC2)c1` (centres unmarked) [Example 273, 3-cyclopropyl-3-(2-((1-(2-((2-dimethylpropyl)-(pyrimidin-2-yl)-carbamoyl)-5-methoxy-phenyl)piperidin-4-yl)-methoxy)-5-fluoropyridin-4-yl)propanoic acid] gave an activation at 1 µM of 101%.

Compound `COc1ccc(C(=O)N(CC(C)(C)C)c2cccc(C)n2)c(N2CCC(COc3cc(C(CC(=O)O)C4CC4)c(F)cn3)CC2)c1` (centres unmarked) [Example 274, 3-cyclopropyl-3-(2-((1-(2-((2,2-dimethylpropyl)-(6-methylpyridin-2-yl)carbamoyl)-5-methoxyphenyl)piperidin-4-yl)methoxy)-5-fluoropyridin-4-yl)propanoic acid] had an activation at 1 µM of 104%.

`COc1ccc(C(=O)N(CC(C)(C)C)c2cccc(C)n2)c(N2CCC(COc3cccc(C(CC(=O)O)C4CC4)c3F)CC2)c1` (centres unmarked) [Example 275, 3-cyclopropyl-3-(3-((1-(2-((2-dimethylpropyl)-(6-methylpyridin-2-yl)-carbamoyl)-5-methoxy-phenyl)piperidin-4-yl)methoxy)-2-fluoro-phenyl)propanoic acid]: the activation at 1 µM is 99%.

`COCC(CC(=O)O)c1cccc(OCC2CCN(c3cc(OC)ccc3C(=O)N(CC(C)(C)C)c3cccc(C)n3)CC2)c1` (centres unmarked) [Example 276, 3-(3-((1-(2-((2,2-dimethylpropyl) (6-methylpyridin-2-yl)carbamoyl)-5-methoxyphenyl)piperidin-4-yl)methoxy)phenyl)-4-methoxybutanoic acid] displayed an activation at 1 µM of 96%.

The compound `COc1ccc(C(=O)N(CC(C)(C)C)c2cccc(C)n2)c(N2CCC(COc3cccc(C(C)(C)CC(=O)O)c3)CC2)c1` [Example 277, 3-(3-((1-(2-((2,2-dimethylpropyl) (6-methylpyridin-2-yl)carbamoyl)-5-methoxyphenyl)piperidin-4-yl)methoxy)phenyl)-3-methylbutanoic acid] gave an activation at 1 µM of 110%.

Consider `COc1ccc(C(=O)N(CC(C)(C)C)c2cccc(C)n2)c(N2CCC(COc3cccc(C4(CC(=O)O)COC4)c3)CC2)c1` [Example 278, (3-(3-((1-(2-((2,2-dimethylpropyl) (6-methylpyridin-2-yl)carbamoyl)-5-methoxyphenyl)piperidin-4-yl)methoxy)phenyl)oxetan-3-yl)acetic acid], for which the activation at 1 µM came out at 78%.

Take `COc1ccc(C(=O)N(CC(C)(C)C)c2ccccn2)c(N2CC[C@H](COc3cccc(C(CC(=O)O)C4CC4)c3)[C@@H](C)C2)c1` (stereo partly drawn) [Example 279, (3S)-cyclopropyl-3-(3-(((3R,4S)-1-(2-((2,2-dimethylpropyl) (pyridin-2-yl)carbamoyl)-5-methoxyphenyl)-3-methylpiperidin-4-yl)methoxy)phenyl)-propanoic acid]: the activation at 1 µM was found to be 92%.

On to `COc1ccc(C(=O)N(CC(C)(C)C)c2ccccn2)c(N2CC[C@@H](COc3cccc(C(CC(=O)O)C4CC4)c3)[C@@H](C)C2)c1` (stereo partly drawn) [Example 280, (3S)-cyclopropyl-3-(3-(((3R,4R)-1-(2-((2,2-dimethylpropyl) (pyridin-2-yl)carbamoyl)-5-methoxyphenyl)-3-methylpiperidin-4-yl)methoxy)phenyl)-propanoic acid], for which the activation at 1 µM is 6%.

In turn, `COc1ccc(C(=O)N(CC(C)(C)C)c2ccccn2)c(N2CCC(COc3cccc(C(CC(=O)O)C4CC4)c3)C(F)(F)C2)c1` [Example 281, (3S)-cyclopropyl-3-(3-((1-(2-((2,2-dimethylpropyl)-(pyridin-2-yl)carbamoyl)-5-methoxyphenyl)-3,3-difluoropiperidin-4-yl)methoxy)phenyl)-propanoic acid] showed an activation at 1 µM of 92%.

For `COc1cc(N2CCC(COc3cc(C(CC(=O)O)C4CC4)ccn3)CC2)c(C(=O)N(CC(C)(C)C)c2cc(C)cc(C)n2)cn1` (centres unmarked) [Example 284, 3-cyclopropyl-3-(2-((1-(5-((2,2-dimethylpropyl) (4,6-dimethylpyridin-2-yl)-carbamoyl)-2-methoxypyridin-4-yl)-piperidin-4-yl)-methoxy)pyridin-4-yl)propanoic acid], the activation at 1 µM was found to be 103%.

`COc1cc(N2CCC(COc3cc(C(CC(=O)O)C4CC4)ccn3)CC2)c(C(=O)N(CC2CC2)c2cc(C)cc(C)n2)cn1` (centres unmarked) [Example 285, 3-cyclopropyl-3-(2-((1-(5-((cyclopropylmethyl) (4,6-dimethylpyridin-2-yl)carbamoyl)-2-methoxypyridin-4-yl)piperidin-4-yl)methoxy)pyridin-4-yl)propanoic acid] gave an activation at 1 µM of 99%.

`COc1cc(N2CCC(COc3cc(C(CC(=O)O)C4CC4)ccn3)CC2)c(C(=O)N(CC(C)(C)C)c2cc(C)nc(C)n2)cn1` (centres unmarked) [Example 286, 3-cyclopropyl-3-(2-((1-(5-((2,2-dimethylpropyl) (2,6-dimethylpyrimidin-4-yl)carbamoyl)-2-methoxypyridin-4-yl)piperidin-4-yl)methoxy)pyridin-4-yl)propanoic acid]: the activation at 1 µM is 107%.

For `COc1ncc(C(=O)N(CC(C)(C)C)c2cccc(C)n2)c(N2CCC(COc3cc(C(CC(=O)O)C4CC4)ccn3)CC2)n1` (centres unmarked) [Example 287, 3-cyclopropyl-3-(2-((1-(5-((2,2-dimethylpropyl) (6-methylpyridin-2-yl)carbamoyl)-2-methoxypyrimidin-4-yl)piperidin-4-yl)methoxy)pyridin-4-yl)propanoic acid], the activation at 1 µM worked out at 82%.

Values taken from US9776962B2, “Aromatic compounds with GPR40 agonistic activity” (TAKEDA PHARMACEUTICAL COMPANY LIMITED, priority 2013, dated 2017).
